Measured values: patent US20170240556A1, “BIFLUORODIOXALANE-AMINO-BENZIMIDAZOLE KINASE INHIBITORS FOR THE TREATMENT OF CANCER, AUTOIMMUNEINFLAMMATION AND CNS DISORDERS” (4SC DISCOVERY GMBH, priority 2012, published 2017)

What was measured:
Type in all cases: cell-based
UMUC3 (bladder) = assay: Proliferation Assay; conditions: Homo sapiens, 72 h, read-out: IC50 inhibition of cell growth
Description: (§1) For the determination of the inhibitory capacity of compounds of the present invention (in the following: “test compound(s)”) on cell growth, cancer cells were seeded into microtitre plates, treated with different concentrations of test compound or left untreated, and after 72 h the protein content was determined as an equivalent for the cell number.
(§2) Test compounds were dissolved in 100% DMSO and predilutions in cell culture medium were prepared with a final concentration of 0.1% DMSO in medium. The cell culture medium for dilution of the test compounds, consecutive culturing of cell lines and usage during the assay was a cell line specific medium as recommended by the cell line supplier and identical for all three applications mentioned above. After a 24-hour pre-growth period of the seeded cancer cells, the test compound containing media or medium containing 0.1% DMSO as control was added to the cells. The cells were allowed to grow at 37° C. for 72 hours. In addition, all experiments contained a few plates with cells that were processed for measurement immediately after the 24 hours recovery period. These plates contained information about the cell number that existed before treatment, at time zero, and served to calculate the cytotoxicity and/or growth inhibitory effects.
(§3) After treatment, cells were precipitated by addition of 10% TCA (trichloracetic acid). Prior to fixation, the media was aspirated. After an hour of incubation at 4° C. the plates were washed twice with 400 μl of deionized water. Cells were then stained with 100 μl of a 0.08% wt/v SRB (sulforhodamine). The plates were allowed to sit for at least 30 min and washed six times with 1% acetic acid to remove unbound staining agent. The plates were left to dry at room temperature and bound SRB was solubilized with 100 μl of 10 mM Tris base. Measurement of optical density was performed at 560 nm on a Victor 2 plate reader (Perkin Elmer, Germany).
(§4) One common way to express the effect of an anticancer agent is to measure cell viability and survival in the presence of the test agent as % Treated/Control×100. The relationship between the viability and dose is called a dose response curve. Those dose response curves were determined by using algorithms developed by Oncolead GmbH & Co. KG, Munich, Germany, that can be compared to commercial applications, e.g. XLfit™ (ID Business Solutions Ltd., Guildford, UK) algorithm “205”.

HEPG2 (liver) = assay: Proliferation Assay; conditions: Homo sapiens, 72 h, read-out: IC50 inhibition of cell growth
Description: as §1, §2, §3, §4

RDES (bone) = assay: Proliferation Assay; conditions: RD-ES, 72 h, read-out: IC50 inhibition of cell growth
Description: as §1, §2, §3, §4

DLD1 (colon) = assay: Proliferation Assay; conditions: Homo sapiens, DLD-1, 72 h, read-out: IC50 inhibition of cell growth
Description: as §1, §2, §3, §4

NCIH292 (lung) = assay: Proliferation Assay; conditions: Homo sapiens, NCI-H292, 72 h, read-out: IC50 inhibition of cell growth
Description: as §1, §2, §3, §4

ASPC1 (pancreas) = assay: Proliferation Assay; conditions: Homo sapiens, 72 h, read-out: IC50 inhibition of cell growth
Description: as §1, §2, §3, §4

SNB75 (brain) = assay: Proliferation Assay; conditions: Homo sapiens, SNB-75, 72 h, read-out: IC50 inhibition of cell growth
Description: as §1, §2, §3, §4

DU145 (prostate) = assay: Proliferation Assay; conditions: Homo sapiens, DU-145, 72 h, read-out: IC50 inhibition of cell growth
Description: as §1, §2, §3, §4

A549 (lung) = assay: Proliferation Assay; conditions: Homo sapiens, 72 h, read-out: IC50 inhibition of cell growth
Description: as §1, §2, §3, §4

NCIH82 (lung) = assay: Proliferation Assay; conditions: Homo sapiens, NCI-H82, 72 h, read-out: IC50 inhibition of cell growth
Description: as §1, §2, §3, §4

MDAMB436 (breast) = assay: Proliferation Assay; conditions: Homo sapiens, MDA-MB-436, 72 h, read-out: IC50 inhibition of cell growth
Description: as §1, §2, §3, §4

HT29 (colon) = assay: Proliferation Assay; conditions: Homo sapiens, HT-29, 72 h, read-out: IC50 inhibition of cell growth
Description: as §1, §2, §3, §4

786O (kidney) = assay: Proliferation Assay; conditions: Homo sapiens, 786-0, 72 h, read-out: IC50 inhibition of cell growth
Description: as §1, §2, §3, §4

[1] = tested on: Hedgehog signaling pathway; assay: Hedgehog reporter assay (Gli Reporter - NIH3T3 Cell Line); conditions: Mus musculus; Gli reporter NIH3T3 cells, murine SHH stimulation, 24 h; read-out: HH Assay
Description: In order to investigate the potency of test compounds to inhibit the Hedgehog signaling pathway, a Gli-Reporter assay was performed.
The “Gli Reporter—NIH3T3 Cell Line” contains the firefly luciferase gene under the control of Gli responsive elements stably integrated into murine NIH3T3 cells (cells purchased from Amsbio). The luciferase expression correlates with activation of the hedgehog signaling pathway. This cell line is validated for its response to stimulation with murine Sonic Hedgehog and to treatment with inhibitors of the hedgehog signaling pathway. A multiplexed viability assay was used to discriminate inhibition on the pathway activity from cell toxicity.
Growth Medium: DMEM, 10% Calf Serum, 1% Penicillin/Streptomycin 500 μg/ml Geneticin (G418 Stock 50 mg/ml).
25.000 cells per well were seeded into a white 96 well plate in 100 μl growth medium and incubated over night at 37° C. and 5% CO2. After removing the supernatant the test compounds and controls (known GLI inhibitor, e.g. GANT-61) were added in different concentrations in a final volume of 45 μl and incubated for 1 h at 37° C. and 5% CO2. For the stimulation of the Hedgehog pathway 5 μl of 10 μg/ml concentrated murine sonic hedgehog (SHH) was added to the cells. A final concentration of 1 μg/ml mSHH and 0.1% DMSO was reached per well. After incubation for 24 h at 37° C. the cells were investigated for viability and reporter activity.
Viability: For the determination of the viability of the treated cells the CellTiter-Fluor Kit from Promega was used. Essentially, only proteases of viable cells are able to cleave the cell-permeant substrate Gly-Phe-AFCoumarin (GF-AFC). By this cleavage the fluorescent AFC is set free and can be detected in a fluorescence reader. For this assay 10 μl of GF-AFC substrate (CellTiter-Fluor, Promega #G6082) was diluted in 2 ml assay buffer from the CellTiter-Fluor Kit and 10 μl of this dilution was added per well to the cells and incubated for 30 min at 37° C. The fluorescence was measured with excitation at 380-400 nm and emission at 505 nm.
Reporter activity: The firefly luciferase reporter activity was detected with the ONE-Glo™ Luciferase Assay System from Promega. For this assay 50 μl ONE-Glo luciferase reagent (Promega #E6120, contains cell lysis buffer and luciferin) was added to each well and incubated at room temperature for 5 min. Luminescence was detected in a plate reader and served as a degree for reporter activity.

Measured: IC50

COc1cccc(C(=O)Nc2nc3cc4c(cc3[nH]2)OC(F)(F)O4)c1 [Compound 56, N-(2,2-difluoro-5H-[1,3]dioxolo[4′,5′:4,5]benzo[1,2-d]imidazol-6-yl)-3-methoxybenzamide]
≤ 500 nM: [1]
≤ 1000 nM: all other assays above
